ChEMBL document CHEMBL1141505, “Conformational significance of EH21A1-A4, phenolic derivatives of geldanamycin, for Hsp90 inhibitory activity” (Bioorg Med Chem Lett, 2008)

Legend:
DLD-1 = assay: Growth inhibition of human DLD1 cells; format: functional
KPL4 [1] = assay: Inhibition of Hsp90 in human KPL4 cells assessed as depletion of ErbB2 level after 40 hrs; format: cell-based
[2] = Growth inhibition of human KPL4 cells; format: functional
[3] = Binding affinity at purified Hsp90 by DELFIA assay
KPL4 [4] = assay: Inhibition of Hsp90 in human KPL4 cells assessed as depletion of Raf-1 level after 40 hrs; format: cell-based
K562 = assay: Induction of human K562 cells differentiation; format: functional, cell-based
A549 = assay: Growth inhibition of human A549 cells; format: functional
HCT-116 = assay: Growth inhibition of human HCT116 cells; format: functional

| SMILES | GI50 (DLD-1) [µM] | MEC (KPL4 [1]) [µM] | GI50 [2] [µM] | EC50 [3] [µM] | MEC (KPL4 [4]) [µM] | EC50 (K562) [µM] | GI50 (A549) [µM] | GI50 (HCT-116) [µM] |
| --- | --- | --- | --- | --- | --- | --- | --- | --- |
| CO[C@H]1C[C@H](C)Cc2cc(O)cc(c2)NC(=O)/C=C/CC[C@H](OC)[C@@H](OC(N)=O)/C(C)=C/[C@H](C)[C@H]1O | > 10 | 3.3 | 3.39 | 0.0147 | 3.3 | 11 | > 10 | > 10 |
| C=CCNC1=C2C[C@@H](C)C[C@H](OC)[C@H](O)[C@@H](C)/C=C(\C)[C@H](OC(N)=O)[C@@H](OC)/C=C\C=C(/C)C(=O)NC(=CC1=O)C2=O [TANESPIMYCIN] | – | 0.03 | 0.007 | – | 0.03 | – | – | – |
| COc1c(O)cc2cc1C[C@@H](C)C[C@H](OC)[C@H](O)[C@@H](C)/C=C(\C)[C@H](OC(N)=O)[C@@H](OC)CC/C=C(\C)C(=O)N2 [REBLASTATIN] | 2.08 | 0.33 | 0.45 | 0.0023 | 0.33 | 0.76 | 2.72 | 0.5 |
| CO[C@H]1C[C@H](C)Cc2cc(O)cc(c2)NC(=O)/C(C)=C/CC[C@H](OC)[C@@H](OC(N)=O)/C(C)=C/[C@H](C)[C@H]1O | 2.35 | 1 | 0.73 | 0.0022 | 1 | 1.9 | 2.73 | 0.78 |
| CO[C@H]1C[C@H](C)Cc2cc(cc(O)c2O)NC(=O)/C(C)=C/CC[C@H](OC)[C@@H](OC(N)=O)/C(C)=C/[C@H](C)[C@H]1O | 9.4 | 10 | 4.33 | 0.006 | 10 | 21 | 10.3 | 8.91 |
| COC1=C2C[C@@H](C)C[C@H](OC)[C@H](O)[C@@H](C)/C=C(\C)[C@H](OC(N)=O)[C@@H](OC)/C=C\C=C(/C)C(=O)NC(=CC1=O)C2=O [GELDANAMYCIN] | 0.037 | 0.11 | 0.059 | 0.057 | 0.33 | – | 0.064 | 0.021 |
| COc1c2cc(cc1OC(C)=O)NC(=O)/C(C)=C/CC[C@H](OC)[C@@H](OC(N)=O)/C(C)=C/[C@H](C)[C@@H](O)[C@@H](OC)C[C@H](C)C2 | 3.52 | 0.33 | 0.18 | 0.0208 | 0.11 | 0.23 | 3.55 | 0.61 |
| C[C@@H]1C[C@H]2O[C@@H]2/C=C\C=C\C(=O)Cc2c(Cl)c(O)cc(O)c2C(=O)O1 [RADICICOL] | 0.076 | – | – | 0.0008 | – | – | 0.11 | 0.058 |
